Laboratory results: patent US20250289814A1, “COMPOUNDS AS PARP1 INHIBITIORS” (NINGBO NEWBAY TECHNOLOGY DEVELOPMENT CO., LTD., priority 2022, published 2025)
Like-named read-outs stand apart in the source and are kept apart here. Values belong to the compound of their own block, whether it stands above or below them.

Assays:
[1] = tested on: DLD1-BRCA2−/− cells; experiment: Cell proliferation assay in DLD1-BRCA2−/− cell lines (CellTiter-Glo, 7 days); assay type: cell-based
Procedure: BRCA2 (−/−) cells cultured in RPMI 1640+10% FBS were harvested and diluted to a density of 1×10^4 cells/mL and 2×10^4 cells/mL, respectively. Cells (40 μL/well) were seeded into 384-well cell culture plates. Plates were covered and incubated at 37° C., 5% CO2 overnight prior to the addition of test compounds or vehicle. The plates were then incubated at 37° C., 5% CO2 for 7 days. On day 8, the plates were removed from incubator and equilibrated at room temperature for 15 minutes. CellTiter-Glo (40 μL, at 1:1 to culture medium) is added into each well and the plates were placed at room temperature for 30 min. Luminescence was measured using an Envision plate reader. The resultant data were analysed as follows; where LC is culture medium without cells:
% inhibition values for different test compound concentrations were calculated and fitted to a four parameter logistic plot in order to determine the IC50 value using XLfit

[2] = Caco2 (A-B/B-A) permeability; assay type: in vitro ADME; details: human; for efflux ratio at 120 min, 5 μM: Caco-2, pH 7.4, PappB-A/PappA-B, read-out: Caco2 efflux ratio (ER); for Papp A→B at 120 min, 5 μM: Caco-2, pH 7.4, apical-to-basolateral, read-out: Caco2 A-B apparent permeability (Papp); for Papp A→B at 120 min, 5 μM / Papp B→A at 120 min, 5 μM: HBSS pH 7.4, 120 min, 37° C.; for Papp B→A at 120 min, 5 μM: Caco-2, pH 7.4, basolateral-to-apical, read-out: Caco2 B-A apparent permeability (Papp)
Procedure: The apical-to-basolateral (A-B) and basolateral-to-apical (B-A) transport of 5 μM test compounds in HBSS (10 mM HEPES, pH 7.4) was measured across Caco-2 cell monolayers (cells sourced from American Type Culture Collection, Manassas, Virgina). Duplicate incubations were performed at approximately 37° C. for 120 min, with functionality of the test system confirmed using 5 μM propranolol and digoxin as control compounds. Aliquots (50 μL) from both apical and basolateral wells were transferred into two fresh 96-well plates and quenched with acetonitrile solution containing analytical internal standards. Samples were vortexed mixed, centrifuged and a 100 μL aliquot of the resulting supernatant mixed with an equal volume of ultra-pure water prior to analysis by UPLC-MS/MS. The concentrations of test compound and control compounds in the incubation medium of donor and receiver compartments at the beginning and the end of the incubation period were used to calculate the apparent permeability (Papp) from A-B and B-A directions. The efflux ratio (ER) was expressed as PappB-A/PappA-B. The integrity of the cell monolayers after 2 hours incubation was confirmed using the marker reagent Lucifer yellow.

Compound: CCc1cc2cnc(CN3CC[C@@H](Oc4ccc(C(=O)NC)nc4F)C3)cc2[nH]c1=O [Compound 62, (R)-5-((1-((3-ethyl-2-oxo-1,2-dihydro-1,6-naphthyridin-7-yl)methyl)pyrrolidin-3-yl)oxy)-6-fluoro-N-methylpicolinamide]
IC50 ([1]; Homo sapiens, DLD-1, 168 h): 1.6 nM | efflux ratio at 120 min, 5 μM [2]: 12.7 | Papp A→B at 120 min, 5 μM [2]: 2.46 ×10⁻⁶ cm/s | Papp B→A at 120 min, 5 μM [2]: 31.2 ×10⁻⁶ cm/s

Compound: CNC(=O)c1ccc(N2CCCN(Cc3cnc4cc(C)c(=O)[nH]c4c3)CC2)cn1 [Compound 35, N-methyl-5-(4-((7-methyl-6-oxo-5,6-dihydro-1,5-naphthyridin-3-yl)methyl)-1,4-diazepan-1-yl) picolinamide]
IC50 ([1]; Homo sapiens, DLD-1, 168 h): > 1000 nM

Compound: CCc1cc2ncc(CN3CC4CCC(C3)N4c3ccc(C(=O)NC)nc3)cc2[nH]c1=O [Compound 39, 5-(3-((7-ethyl-6-oxo-5,6-dihydro-1,5-naphthyridin-3-yl)methyl)-3,8-diazabicyclo [3.2.1]octan-8-yl)-N-methylpicolinamide]
IC50 ([1]; Homo sapiens, DLD-1, 168 h): > 1000 nM

Compound: CCc1cc2ncc(CN3CCC(N(C)c4ccc(C(=O)NC)nc4)CC3)cc2[nH]c1=O [Compound 31, 5-((1-((7-ethyl-6-oxo-5,6-dihydro-1,5-naphthyridin-3-yl)methyl)piperidin-4-yl)(methyl)amino)-N-methylpicolinamide]
IC50 ([1]; Homo sapiens, DLD-1, 168 h): > 1000 nM | efflux ratio at 120 min, 5 μM [2]: 8.81 | Papp A→B at 120 min, 5 μM [2]: 3.5 ×10⁻⁶ cm/s | Papp B→A at 120 min, 5 μM [2]: 30.9 ×10⁻⁶ cm/s

Compound: CCc1cc2ncc([C@H](C)N3CC[C@@H](Oc4ccc(C(=O)NC)nc4)C3)cc2[nH]c1=O (single isomer, unassigned) [Compound 12, 5-(((R)-1-((enantiomer 1 or 2)-1-(7-ethyl-6-oxo-5,6-dihydro-1,5-naphthyridin-3-yl)ethyl)pyrrolidin-3-yl)oxy)-N-methylpicolinamide]
IC50 ([1]; Homo sapiens, DLD-1, 168 h): 22.5 nM | efflux ratio at 120 min, 5 μM [2]: 10.3 | Papp A→B at 120 min, 5 μM [2]: 3.44 ×10⁻⁶ cm/s | Papp B→A at 120 min, 5 μM [2]: 35.5 ×10⁻⁶ cm/s

Compound: CCc1cc2ncc(CN3C4CCC3CN(c3ccc(C(=O)NC)nc3)C4)cc2[nH]c1=O [Compound 38, 5-(8-((7-ethyl-6-oxo-5,6-dihydro-1,5-naphthyridin-3-yl)methyl)-3,8-diazabicyclo [3.2.1]octan-3-yl)-N-methylpicolinamide]
IC50 ([1]; Homo sapiens, DLD-1, 168 h): > 1000 nM

Compound: CCc1cc2ncc(CN3CC(Oc4ccc(C(=O)NC)nc4)C[C@@H]3C)cc2[nH]c1=O (single isomer, unassigned) [Compound 23, 5-(((enantiomer 1 or 2, 5S)-1-((7-ethyl-6-oxo-5,6-dihydro-1,5-naphthyridin-3-yl)methyl)-5-methylpyrrolidin-3-yl)oxy)-N-methylpicolinamide]
IC50 [1]: > 1000 nM

Compound: CCc1cc2ncc(CN3C4CC3CN(c3ccc(C(=O)NC)nc3)C4)cc2[nH]c1=O [Compound 36, 5-(6-((7-ethyl-6-oxo-5,6-dihydro-1,5-naphthyridin-3-yl)methyl)-3,6-diazabicyclo [3.1.1]heptan-3-yl)-N-methylpicolinamide]
IC50 ([1]; Homo sapiens, DLD-1, 168 h): > 1000 nM

Compound: CCc1cc2ncc(CN3CC[C@@H](Oc4cnc(C(=O)NC)c(F)c4)C3)cc2[nH]c1=O [Compound 27, (R)-5-((1-((7-ethyl-6-oxo-5,6-dihydro-1,5-naphthyridin-3-yl)methyl)pyrrolidin-3-yl)oxy)-3-fluoro-N-methylpicolinamide]
IC50 ([1]; Homo sapiens, DLD-1, 168 h): 356 nM

Compound: CNC(=O)c1ccc(N2CC3CN(Cc4cnc5cc(C)c(=O)[nH]c5c4)CC3C2)cn1 (stereo not drawn) [Compound 41, N-methyl-5-(5-((7-methyl-6-oxo-5,6-dihydro-1,5-naphthyridin-3-yl)methyl)hexahydropyrrolo[3,4-c]pyrrol-2(1H)-yl)picolinamide]
IC50 ([1]; Homo sapiens, DLD-1, 168 h): > 1000 nM

Second part, the compound after the results:

IC50 ([1]; Homo sapiens, DLD-1, 168 h): 14.3 nM | efflux ratio at 120 min, 5 μM [2]: 10.3 | Papp A→B at 120 min, 5 μM [2]: 3.55 ×10⁻⁶ cm/s | Papp B→A at 120 min, 5 μM [2]: 36.5 ×10⁻⁶ cm/s
Compound: CCc1cc2ncc(CN3CCC(Oc4ccc(C(=O)NC)nc4)C3)cc2[nH]c1=O (stereo not drawn) [Compound 9, 5-((1-((7-ethyl-6-oxo-5,6-dihydro-1,5-naphthyridin-3-yl)methyl)pyrrolidin-3-yl)oxy)-N-methylpicolinamide]

IC50 ([1]; Homo sapiens, DLD-1, 168 h): > 1000 nM | efflux ratio at 120 min, 5 μM [2]: 7.71 | Papp A→B at 120 min, 5 μM [2]: 4.57 ×10⁻⁶ cm/s | Papp B→A at 120 min, 5 μM [2]: 35.3 ×10⁻⁶ cm/s
Compound: CCc1cc2ncc(CN3CC4CCN(c5ccc(C(=O)NC)nc5)C4C3)cc2[nH]c1=O (stereo not drawn) [Compound 42, 5-(5-((7-ethyl-6-oxo-5,6-dihydro-1,5-naphthyridin-3-yl)methyl)hexahydropyrrolo[3,4-b]pyrrol-1(2H)-yl)-N-methylpicolinamide]

IC50 ([1]; Homo sapiens, DLD-1, 168 h): > 1000 nM
Compound: CCc1cc2ncc(CN3CCC[C@@H](Oc4ccc(C(=O)NC)nc4)C3)cc2[nH]c1=O (single isomer, unassigned) [Compound 32, (enantiomer 1 or 2)-5-((1-((7-ethyl-6-oxo-5,6-dihydro-1,5-naphthyridin-3-yl)methyl)piperidin-3-yl)oxy)-N-methylpicolinamide]

IC50 ([1]; Homo sapiens, DLD-1, 168 h): > 1000 nM
Compound: CCc1cc2ncc(CN3CC(Oc4ccc(C(=O)NC)nc4)C3C)cc2[nH]c1=O (stereo not drawn) [Compound 18, 5-((1-((7-ethyl-6-oxo-5,6-dihydro-1,5-naphthyridin-3-yl)methyl)-2-methylazetidin-3-yl)oxy)-N-methylpicolinamide]

IC50 [1]: > 1000 nM
Compound: CCc1cc2ncc(CN3CC[C@@H](N(C)c4ccc(C(=O)NC)nc4)C3)cc2[nH]c1=O (single isomer, unassigned; enantiomer 1) [Compound 16, (enantiomer 1)-5-((1-((7-ethyl-6-oxo-5,6-dihydro-1,5-naphthyridin-3-yl)methyl)pyrrolidin-3-yl)(methyl)amino)-N-methylpicolinamide]

IC50 ([1]; Homo sapiens, DLD-1, 168 h): > 1000 nM
Compound: CCc1cc2ncc(CN3CCCN(c4ccc(C(=O)NC)nc4)CC3)cc2[nH]c1=O [Compound 34, 5-(4-((7-ethyl-6-oxo-5,6-dihydro-1,5-naphthyridin-3-yl)methyl)-1,4-diazepan-1-yl)-N-methylpicolinamide]

IC50 ([1]; Homo sapiens, DLD-1, 168 h): 300 nM
Compound: CCc1cc2ncc(CN3CC[C@@H](Cc4ccc(C(=O)NC)nc4)C3)cc2[nH]c1=O (single isomer, unassigned) [Compound 25, (enantiomer 1 or 2)-5-((1-((7-ethyl-6-oxo-5,6-dihydro-1,5-naphthyridin-3-yl)methyl)pyrrolidin-3-yl)methyl)-N-methylpicolinamide]

IC50 [1]: > 1000 nM
Compound: CCc1cc2ncc(CN3CCC[C@@H](Oc4ccc(C(=O)NC)nc4)C3)cc2[nH]c1=O (single isomer, unassigned) [Compound 33, (enantiomer 1 or 2)-5-((1-((7-ethyl-6-oxo-5,6-dihydro-1,5-naphthyridin-3-yl)methyl)piperidin-3-yl)oxy)-N-methylpicolinamide]

IC50 ([1]; Homo sapiens, DLD-1, 168 h): 215 nM
Compound: CNC(=O)c1ccc(O[C@@H]2CCN(Cc3cnc4cc(C)c(=O)[nH]c4c3)C2)cn1 [Compound 59, (R)-N-methyl-5-((1-((7-methyl-6-oxo-5,6-dihydro-1,5-naphthyridin-3-yl)methyl)pyrrolidin-3-yl)oxy)picolinamide]

IC50 [1]: 192 nM
Compound: CCc1cc2ncc(CN3CC[C@@H](Cc4ccc(C(=O)NC)nc4)C3)cc2[nH]c1=O (single isomer, unassigned) [Compound 26, (enantiomer 1 or 2)-5-((1-((7-ethyl-6-oxo-5,6-dihydro-1,5-naphthyridin-3-yl)methyl)pyrrolidin-3-yl)methyl)-N-methylpicolinamide]

IC50 ([1]; Homo sapiens, DLD-1, 168 h): > 1000 nM
Compound: CCc1cc2ncc(CN3CC(Oc4ccc(C(=O)NC)nc4)C[C@@H]3C)cc2[nH]c1=O (single isomer, unassigned) [Compound 22, 5-(((enantiomer 1 or 2, 5S)-1-((7-ethyl-6-oxo-5,6-dihydro-1,5-naphthyridin-3-yl)methyl)-5-methylpyrrolidin-3-yl)oxy)-N-methylpicolinamide]
